Measurements from patent US9532569B2 (INSTITUT NATIONAL DE LA RECHERCHE AGRONOMIQUE, priority 2012, dated 2017).

Key:
MRC5 cells = test: In vitro cytotoxicity study on MRC5 cells (MTS); assay type: cell-based, human
Experimental: The cytotoxicity of the compound (IIa) according to the invention, and that of GR24 and of GR5 as comparative compounds, was evaluated in vitro, at concentrations of 10^−4 M and 10^−5 M, on MRC5 cells, in DMSO, in the following way.
MRC5 cells (human lung (fibroblasts) were cultured in Dulbecco's modified Eagle medium (DMEM) supplemented with: 25 mM of glucose, 10% (v/v) of fetal calf serum, 100 IU of penicillin, 100 μg/ml of streptomycin and 1.5 μg/ml of fungizone, and kept under 5% of CO2 at 37° C.
96-well plates were seeded with 2100 MRC5 cells per well in 200 μl of medium. After 24 hours, each of the compounds dissolved in DMSO was added for 72 hours, at a final concentration of 10^−4 M or 10^−5 M in a fixed volume of DMSO. The controls received an equal volume of DMSO.
The viable cell number was measured at 490 nm with the MTS reagent (Promega), and, for each compound, the concentration causing 50% inhibition of cell growth, IC50, was calculated.

Phelipanche ramosa pv C = test: Germinative activity on parasitic plants; assay type: in vivo; settings: counted after 4 days
Experimental: (§1) In this example, the germinative activity of the compounds in accordance with the invention (IIa) and (IIIb) and of the comparative compound GR24 was evaluated on the parasitic plants: Orobanche cumana, Orobanche minor, Striga hermonthica, Phelipanche ramosa (pv T and pv C).
(§2) The test protocol used was the following.
(§3) Two populations of Phelipanche ramosa were used in this study, pathovar (pv) C and T, described in the publication by Benharrat et al. (2005). Seeds of Phelipanche ramosa pathovar C were collected at Saint Martin de Fraigneau, France, on broomrapes parasitizing winter oilseed rape (Brassica napus L.) in 2005 and seeds of Phelipanche ramosa pathovar T were collected in Sarthe, France, on broomrapes developing on hemp (Cannabis sativa L.) in 2007.
(§4) The seeds are stored dry in the dark at 25° C.
(§5) The compounds to be studied were resuspended in acetone at 10 mmol·l^−1, then diluted with water to 1 mmol·l^−1 (water/acetone; v/v; 99/1). Dilutions of 1×10^−3 mol·l^−1 to 1×10^−15 mol·l^−1 were then prepared in a water/acetone mixture (v/v; 99/1). Seeds of parasitic plants were surface-sterilized according to the protocol described in the publication by Vieira Dos Santos et al. (2003), then resuspended in sterile water (10 g·l^−1) and distributed on a 96-well plate (in a proportion of 50 μl, i.e. approximately 100 seeds per well). After preconditioning (7 days, 21° C., in the dark, plate hermetically sealed, except for the seeds of S. hermonthica, which were preconditioned at 30° C.), the compounds to be studied were added and the volumes adjusted to 100 μl with water (water/acetone; v/v; 999/1).
(§6) In a plate, a range of concentrations from 10^−13 mol·l^−1 to 10^−6 mol·l^−1 was applied for GR24 and (IIa) and from 10^−12 to 10^−5 mol·l^−1 for (IIIb). Controls were carried out with a water/acetone mixture (v/v; 999/1) and without seeds. The plates were incubated so as to allow germination (21° C., in the dark or 30° C. for Striga hermonthica.). After 4 days, the seeds which had germinated were counted under a stereomicroscope (SZX10, Olympus). The seeds were considered to have germinated when the radicle was sticking out of the seed tegument. Each germination test was repeated at least 3 times. For each compound tested, dose-response curves (g=f(c), where g is the germination percentage and c the concentration (mol·l^−1)), and the EC50 (median effective concentration) were modeled on the basis of a 4-parameter logistic curve calculated with SigmaPlot® 10.0.
(§7) The percentages of maximum germination induced by the compounds tested for each parasitic plant were determined.

Phelipanche ramosa pv T = test: Germinative activity on parasitic plants; assay type: in vivo; settings: counted after 4 days
Experimental: as §1, §2, §3, §4, §5, §6, §7

Orobanche minor = test: Germinative activity on parasitic plants; assay type: in vivo; settings: counted after 4 days
Experimental: as §1, §2
(§8) Seeds of Orobanche cumana Wallr. were collected from broomrapes parasitizing sunflower (Helianthus annuus L.), at Longeville-sur-mer, France, in 2009; seeds of clover broomrape (Orobanche minor Sm.) from a parasite of red clover (Trifolium pratense L.) were obtained from Professor K. Yoneyama (Utsunomiya University, Japan).
as §4, §5, §6, §7

Orobanche cumana = test: Germinative activity on parasitic plants; assay type: in vivo; settings: counted after 4 days
Experimental: as §1, §2, §8, §4, §5, §6, §7

pea rms4 mutant = assay type: in vivo, Pisum sativum L.
Experimental: The protocol used is in accordance with that described in example 4 above. Compound concentrations of 100 nM and 3 μM were tested. A negative control consisting of the solvent alone (<<CTL 0>>) was also tested.
The number of dead buds following the treatment with 3 μM of compound was also determined after 8 days of treatment (on groups of 48 plants).

Question: Which results are given for `CC1=C(C)C(Sc2ccc(Cl)cc2)OC1=O` (stereo not drawn) [Compound (IIa), 5-((4-chlorophenyl)thio)-3,4-dimethylfuran-2(5H)-one]?
Answer: inhibition at 100 µM (MRC5 cells; Homo sapiens, MRC5, 10^−4M, 72 hours, ± standard error, read-out: Percentage inhibition of MRC5 cell growth): 11 ± 5%; inhibition at 10 µM (MRC5 cells; Homo sapiens, MRC5, 10^−5M, 72 hours, ± standard error, read-out: Percentage inhibition of MRC5 cell growth): 7 ± 4%; cytotoxicity compared with GR5 and GR24 (MRC5 cells; concentration of 10^−4 M): cytotoxicity which is much lower than that of the comparative compounds GR5 and GR24; Percentage of maximum germination induced (Phelipanche ramosa pv C): 27 ± 4%; Percentage of maximum germination induced (Phelipanche ramosa pv T): 72 ± 2%; Percentage of maximum germination induced (Orobanche minor): no (no significant germination compared to the negative control (<2%)); Percentage of maximum germination induced (Orobanche cumana): no (no significant germination compared to the negative control (<2%)); length of bud/branch at node 3 (toxicity) (pea rms4 mutant; 100 nM and 3 μM, 8 days after treatment at node 3, FIG. 15): absence of effects of the compounds in accordance with the invention (IIa) and (IIIb) compared with a negative control, and between the two treatment doses; number of dead buds after treatment (pea rms4 mutant; 3 μM, 8 days of treatment, groups of 48 plants, FIG. 16): no significant difference is notable regarding the number of dead buds following the treatment
